From patent publication US20230293535A1, “ERBB/BTK INHIBITORS” (Dizal (Jiangsu) Pharmaceutical Co., Ltd., priority 2018, published 2023)

Key:
[1] = target: T1, human EGFR exon 20 H773_V774insNPH (Homo sapiens, UniProt P00533, INS773NPH); assay: EGFR Exon20 NPH insertion cellular phosphorylation inhibition (MSD pEGFR Y1068/total EGFR); type: cell-based; conditions: Ba/F3 EGFR NPH ins cells, 4 h compound, p-EGFR(Y1068)/total EGFR;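 also: IL3-independent Ba/F3 cells with constitutively phosphorylated EGFR, compound exposure at 37 °C under 5% CO2, electrochemiluminescent MSD measurement of the p-EGFR to total EGFR ratio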
T1 construct: host or cells: Ba/F3
T1 sequence (P00533 with tags, fused parts or gaps INS773NPH): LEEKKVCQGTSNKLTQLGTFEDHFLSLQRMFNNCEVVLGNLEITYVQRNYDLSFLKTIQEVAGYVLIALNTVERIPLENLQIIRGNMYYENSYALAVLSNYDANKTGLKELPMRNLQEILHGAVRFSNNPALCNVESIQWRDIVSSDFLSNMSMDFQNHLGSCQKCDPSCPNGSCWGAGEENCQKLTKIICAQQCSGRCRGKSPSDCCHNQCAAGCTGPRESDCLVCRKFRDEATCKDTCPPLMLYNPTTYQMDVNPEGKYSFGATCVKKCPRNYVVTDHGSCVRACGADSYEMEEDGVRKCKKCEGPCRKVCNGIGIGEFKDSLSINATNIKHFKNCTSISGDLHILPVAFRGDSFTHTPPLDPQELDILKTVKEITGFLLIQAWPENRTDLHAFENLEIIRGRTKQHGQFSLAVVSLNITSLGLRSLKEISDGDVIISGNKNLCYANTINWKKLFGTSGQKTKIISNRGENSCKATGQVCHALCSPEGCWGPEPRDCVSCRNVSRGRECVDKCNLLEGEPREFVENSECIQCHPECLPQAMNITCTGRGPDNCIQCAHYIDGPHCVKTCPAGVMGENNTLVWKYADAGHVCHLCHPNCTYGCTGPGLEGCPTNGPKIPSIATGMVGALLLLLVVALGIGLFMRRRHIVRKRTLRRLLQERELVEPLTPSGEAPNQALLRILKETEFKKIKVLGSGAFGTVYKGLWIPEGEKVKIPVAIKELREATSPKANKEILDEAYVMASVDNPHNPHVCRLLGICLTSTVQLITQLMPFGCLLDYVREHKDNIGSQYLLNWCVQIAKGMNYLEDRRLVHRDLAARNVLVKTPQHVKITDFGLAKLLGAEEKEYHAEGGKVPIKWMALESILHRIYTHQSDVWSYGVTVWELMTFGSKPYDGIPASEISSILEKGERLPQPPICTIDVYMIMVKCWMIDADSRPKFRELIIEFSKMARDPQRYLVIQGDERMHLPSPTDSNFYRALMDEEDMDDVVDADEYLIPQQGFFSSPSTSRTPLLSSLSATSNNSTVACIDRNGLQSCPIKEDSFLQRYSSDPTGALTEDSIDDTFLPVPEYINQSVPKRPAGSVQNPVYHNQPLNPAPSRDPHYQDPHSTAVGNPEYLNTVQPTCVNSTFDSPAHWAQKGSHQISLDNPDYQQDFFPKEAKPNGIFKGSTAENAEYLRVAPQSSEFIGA

[2] = target: T2, human EGFR exon 20 V769_D770insASV (Homo sapiens, UniProt P00533, INS769ASV); assay: EGFR Exon20 ASV insertion cellular phosphorylation inhibition (MSD pEGFR Y1068/total EGFR); type: cell-based; conditions: Ba/F3 EGFR ASV ins cells, 4 h compound, p-EGFR(Y1068)/total EGFR;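 also: electrochemiluminescent readout on an MSD SECTOR Imager, IL3-independent transduced cells in medium with 1% FBS, compound concentration series at 37 °C and 5% CO2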
T2 construct: expressed in transfected cells; host or cells: Ba/F3 (DSMZ ACC-300), lentiviral transduction, puromycin selection, IL3 depletion

EGFR L858R&T790M = target: T3, EGFR L858R&T790M (Homo sapiens, UniProt P00533, L858R/T790M); assay: EGFR L858R and T790M cellular phosphorylation inhibition in NCI-H1975 (MSD); type: cell-based; conditions: NCI-H1975 cells, 4 h compound, p-EGFR(Y1068)/total EGFR; read-out: EGFR L858R and T790M mutation IC50;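 also: phosphorylated and total EGFR detected by electrochemiluminescence, cells exposed to compound in medium containing 1% FBS at 37 °C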
T3 construct: host or cells: NCI-H1975
T3 sequence (P00533 25-1210 T790M/L858R): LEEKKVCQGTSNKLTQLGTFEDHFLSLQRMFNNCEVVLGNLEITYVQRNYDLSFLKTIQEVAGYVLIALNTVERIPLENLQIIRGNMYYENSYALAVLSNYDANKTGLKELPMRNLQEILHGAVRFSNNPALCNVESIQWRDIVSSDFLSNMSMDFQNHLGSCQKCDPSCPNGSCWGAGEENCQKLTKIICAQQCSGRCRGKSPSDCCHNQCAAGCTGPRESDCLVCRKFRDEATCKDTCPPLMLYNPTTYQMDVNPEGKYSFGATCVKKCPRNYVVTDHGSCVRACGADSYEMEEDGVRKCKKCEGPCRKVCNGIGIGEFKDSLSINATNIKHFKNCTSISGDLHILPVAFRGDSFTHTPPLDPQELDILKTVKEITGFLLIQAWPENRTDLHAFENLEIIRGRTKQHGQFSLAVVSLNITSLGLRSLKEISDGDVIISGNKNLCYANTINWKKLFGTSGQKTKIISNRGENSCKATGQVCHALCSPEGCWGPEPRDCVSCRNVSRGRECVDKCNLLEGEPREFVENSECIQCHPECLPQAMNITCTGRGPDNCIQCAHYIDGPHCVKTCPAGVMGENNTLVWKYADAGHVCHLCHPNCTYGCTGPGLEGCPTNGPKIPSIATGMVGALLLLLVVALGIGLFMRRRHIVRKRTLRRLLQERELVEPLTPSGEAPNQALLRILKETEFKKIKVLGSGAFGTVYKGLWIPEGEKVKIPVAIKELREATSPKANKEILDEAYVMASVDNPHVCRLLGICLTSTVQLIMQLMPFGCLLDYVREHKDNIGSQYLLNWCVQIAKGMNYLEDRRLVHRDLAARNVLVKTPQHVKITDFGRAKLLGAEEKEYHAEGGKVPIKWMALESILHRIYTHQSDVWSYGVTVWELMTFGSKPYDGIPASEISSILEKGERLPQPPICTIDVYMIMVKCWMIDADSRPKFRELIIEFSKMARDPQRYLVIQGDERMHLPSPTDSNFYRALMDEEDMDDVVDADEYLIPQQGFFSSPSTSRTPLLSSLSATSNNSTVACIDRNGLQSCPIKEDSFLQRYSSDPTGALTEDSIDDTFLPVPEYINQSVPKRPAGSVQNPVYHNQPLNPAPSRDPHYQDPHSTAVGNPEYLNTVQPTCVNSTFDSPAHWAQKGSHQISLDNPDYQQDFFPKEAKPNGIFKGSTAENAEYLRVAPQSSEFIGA

[3] = target: T4, human Her2 exon 20 insertion mutation YVMA (Homo sapiens, UniProt P04626, INS775YVMA); assay: Her2 Exon 20 YVMA insertion cellular phosphorylation inhibition (MSD p-Her2 Y1248/total Her2); type: cell-based; conditions: Her2 YVMAins cells, 4 h compound;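 also: lentivirally transduced NIH-3T3 cells in 1% FBS medium, electrochemiluminescent MSD read-out, graded compound concentrations at 37 °C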
T4 construct: expressed in transfected cells; host or cells: NIH-3T3, lentiviral transduction, puromycin selection
T4 sequence (P04626 with tags, fused parts or gaps INS775YVMA): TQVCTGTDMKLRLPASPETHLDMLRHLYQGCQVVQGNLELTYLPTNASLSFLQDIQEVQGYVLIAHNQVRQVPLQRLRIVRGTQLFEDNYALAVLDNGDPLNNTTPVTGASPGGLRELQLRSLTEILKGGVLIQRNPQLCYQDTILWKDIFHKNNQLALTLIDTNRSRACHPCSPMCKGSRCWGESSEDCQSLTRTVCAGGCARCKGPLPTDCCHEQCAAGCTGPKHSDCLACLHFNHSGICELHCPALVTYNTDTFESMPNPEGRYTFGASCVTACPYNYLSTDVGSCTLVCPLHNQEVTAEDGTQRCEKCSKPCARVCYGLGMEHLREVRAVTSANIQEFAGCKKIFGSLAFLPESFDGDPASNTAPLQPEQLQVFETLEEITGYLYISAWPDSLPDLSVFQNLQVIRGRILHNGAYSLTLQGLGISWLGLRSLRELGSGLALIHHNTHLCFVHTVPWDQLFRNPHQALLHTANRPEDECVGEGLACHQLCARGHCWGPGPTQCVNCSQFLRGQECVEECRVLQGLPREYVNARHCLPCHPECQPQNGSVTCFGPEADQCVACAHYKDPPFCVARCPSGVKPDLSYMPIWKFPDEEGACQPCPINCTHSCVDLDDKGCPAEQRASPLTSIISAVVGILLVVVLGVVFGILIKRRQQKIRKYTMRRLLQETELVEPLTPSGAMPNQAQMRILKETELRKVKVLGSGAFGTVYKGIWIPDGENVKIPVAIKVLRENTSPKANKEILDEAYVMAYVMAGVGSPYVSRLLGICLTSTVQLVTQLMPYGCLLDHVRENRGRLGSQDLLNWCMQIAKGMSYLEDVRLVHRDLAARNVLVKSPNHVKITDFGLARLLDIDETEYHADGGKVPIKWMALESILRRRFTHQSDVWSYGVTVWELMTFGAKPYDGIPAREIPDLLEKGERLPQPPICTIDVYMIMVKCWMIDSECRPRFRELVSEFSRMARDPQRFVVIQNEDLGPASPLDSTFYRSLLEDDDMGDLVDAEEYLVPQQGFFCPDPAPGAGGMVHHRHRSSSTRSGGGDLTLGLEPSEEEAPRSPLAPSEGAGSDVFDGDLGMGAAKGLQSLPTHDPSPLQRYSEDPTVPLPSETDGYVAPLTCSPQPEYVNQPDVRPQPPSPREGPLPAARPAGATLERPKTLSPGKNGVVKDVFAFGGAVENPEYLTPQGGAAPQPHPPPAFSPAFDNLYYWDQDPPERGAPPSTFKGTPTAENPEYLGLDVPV

WT EGFR = target: T5, WT EGFR (Homo sapiens, UniProt P00533); assay: WT EGFR cellular phosphorylation inhibition in A-431 (hEGF stimulated, MSD); type: cell-based; conditions: A431 cells, 4 h compound, then 100 ng/ml hEGF 10 min;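 also: electrochemiluminescence read-out of EGFR Tyr1068 phosphorylation expressed as ratio to total EGFR, cells kept in medium with 1% FBS, compounds tested as a concentration series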
T5 construct: host or cells: A-431
T5 sequence (P00533 25-1210): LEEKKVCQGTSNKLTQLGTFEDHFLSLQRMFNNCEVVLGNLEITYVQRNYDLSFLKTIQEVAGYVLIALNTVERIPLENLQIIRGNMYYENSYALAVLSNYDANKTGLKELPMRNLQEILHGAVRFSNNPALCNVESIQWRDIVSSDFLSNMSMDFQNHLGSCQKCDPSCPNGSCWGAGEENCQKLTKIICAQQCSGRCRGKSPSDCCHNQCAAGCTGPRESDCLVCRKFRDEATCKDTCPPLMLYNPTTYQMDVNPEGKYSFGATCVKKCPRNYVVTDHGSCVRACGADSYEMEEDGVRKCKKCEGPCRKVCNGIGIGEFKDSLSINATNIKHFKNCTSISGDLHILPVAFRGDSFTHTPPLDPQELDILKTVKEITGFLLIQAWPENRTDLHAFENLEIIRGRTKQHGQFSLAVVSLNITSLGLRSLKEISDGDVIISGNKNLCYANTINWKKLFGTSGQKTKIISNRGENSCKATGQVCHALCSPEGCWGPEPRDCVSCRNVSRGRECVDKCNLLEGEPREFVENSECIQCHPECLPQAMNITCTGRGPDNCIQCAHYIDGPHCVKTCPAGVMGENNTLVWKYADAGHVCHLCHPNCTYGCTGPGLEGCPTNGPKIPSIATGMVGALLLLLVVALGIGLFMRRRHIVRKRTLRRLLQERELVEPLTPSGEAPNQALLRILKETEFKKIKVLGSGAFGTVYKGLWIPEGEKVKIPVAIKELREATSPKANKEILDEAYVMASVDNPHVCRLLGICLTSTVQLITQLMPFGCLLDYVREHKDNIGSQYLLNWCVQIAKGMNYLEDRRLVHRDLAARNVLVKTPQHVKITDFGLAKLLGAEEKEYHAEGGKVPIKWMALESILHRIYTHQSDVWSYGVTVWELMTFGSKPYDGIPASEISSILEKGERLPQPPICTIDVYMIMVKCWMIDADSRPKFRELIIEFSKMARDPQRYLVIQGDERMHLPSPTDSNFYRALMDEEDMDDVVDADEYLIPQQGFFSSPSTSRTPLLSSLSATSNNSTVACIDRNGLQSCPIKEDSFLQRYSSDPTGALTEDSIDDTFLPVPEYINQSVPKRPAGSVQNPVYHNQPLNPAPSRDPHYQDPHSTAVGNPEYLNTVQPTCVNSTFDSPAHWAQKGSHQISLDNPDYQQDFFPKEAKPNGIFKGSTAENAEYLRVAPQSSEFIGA

Ba/F3 EGFR NPH ins cells = assay: Cell proliferation, Ba/F3 EGFR NPH ins (CellTiter-Glo, 72 h); type: cell-based; conditions: Ba/F3 EGFR, 72 h, Ba/F3 EGFR NPH ins, 72 h proliferation; read-out: EGFR Exon20 NPH insertion GI50;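 also: IL3-independent cells carrying constitutively phosphorylated EGFR, compound dilution series, viable cells quantified by ATP luminescence, growth relative to DMSO wells after subtracting pre-dosing (day 0) baseline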
Ba/F3 EGFR ASV ins cells = assay: Cell proliferation, Ba/F3 EGFR ASV ins (CellTiter-Glo, 72 h); type: cell-based; conditions: Ba/F3 EGFR, 72 h, Ba/F3 EGFR ASV ins, 72 h proliferation; read-out: EGFR Exon20 ASV insertion GI50;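 also: IL3-independent Ba/F3 cells transduced with EGFR V769_D770insASV, cellular ATP luminescence after compound exposure, growth relative to DMSO control with the day-0 baseline reading subtracted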
[4] = tested on: NCI-H1975 EGFR L858R/T790M cells; assay: Cell proliferation, NCI-H1975 EGFR L858R/T790M (CellTiter-Glo, 72 h); type: cell-based; conditions: Homo sapiens, NCI-H1975, 72 h, NCI-H1975, 72 h proliferation; read-out: EGFR L858R and T790M mutation GI50;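 also: viable cells quantified by luciferase-based ATP luminescence, proliferation expressed relative to DMSO-treated wells (100%) after subtracting a parallel plate read at the time of dosing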
[5] = tested on: Her2 exon 20 insertion YVMA transduced NIH-3T3 cell line; assay: Cell proliferation, Her2 YVMAins NIH-3T3 (CellTiter-Glo, 72 h); type: cell-based; conditions: Mus musculus, NIH3T3, 72 h, Her2 YVMAins cells, 72 h proliferation; read-out: Her2 Exon 20 YVMA insertion GI50;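 also: viable cells quantified by ATP luminescence, growth over a day-zero baseline plate expressed as percent of DMSO control growth, compound dilution series in 10% FBS medium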
WT EGFR cell line A-431 = assay: Cell proliferation, WT EGFR A431 (CellTiter-Glo, 72 h); type: cell-based; conditions: Homo sapiens, A-431, 72 h, A431, 72 h proliferation; read-out: EGFR WT A431 GI50;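 also: proliferation from a luminescent ATP viability signal, expressed as 100 × (treated minus time-zero plate) over (DMSO control minus time-zero plate), cells grown with 10% FBS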
OCI-LY-10 cells = assay: BTK (wt) cell proliferation, OCI-LY-10 (CellTiter-Glo, 72 h); type: cell-based; conditions: Homo sapiens, OCI-Ly10, 72 h, OCI-LY-10 cells, 72 h, CellTiter-Glo; read-out: BTK WT OCI-LY-10 GI50;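 also: viable cells quantified via cellular ATP luminescence, proliferation given as percent of DMSO control after subtracting a duplicate plate read at time of dosing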
TMD-8 cells = assay: BTK (wt) cell proliferation, TMD-8 (CellTiter-Glo, 72 h); type: cell-based; conditions: Homo sapiens, TMD8, 72 h, TMD-8 cells, 72 h, CellTiter-Glo; read-out: BTK WT TMD-8 GI50;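 also: viable cells quantified by ATP-based luminescence, proliferation expressed as percent of DMSO control after subtracting a time-zero baseline plate read at dosing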
Ri-1 cells = assay: BTK (wt) cell proliferation, Ri-1 (CellTiter-Glo, 72 h); type: cell-based; conditions: Ri-1, 72 h, Ri-1 cells, 72 h, CellTiter-Glo; read-out: BTK WT Ri-1 GI50;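 also: viable cells quantified as cellular ATP luminescence, proliferation normalized to a time-zero plate and the DMSO control, compounds tested across a dilution series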
DB cells = assay: BTK (wt) cell proliferation, DB (CellTiter-Glo, 72 h); type: cell-based; conditions: Homo sapiens, DB, DB cells, CellTiter-Glo, read-out: Non-BCR activated DB GI50;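 also: DB cells in 384-well plates given a dilution series of compound, viable cells read by ATP luminescence, growth expressed versus DMSO control after subtracting a time-zero plate reading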
[6] = Rat pharmacokinetic study after oral administration (SOA); type: in vivo; conditions: male Han Wistar rats; for SOA DN AUCSYS (ng·h/mL)/(mg/kg): dose-normalised systemic AUC; for Cmax: rat, plasma, nominal 10 mg/kg (actual dose in c1)
Description: For rat pharmacokinetic studies, six male Han Wistar rats were purchased from Beijing Vital River and orally dosed with the test compound at 10 mg/kg in 0.5% Tween-80 and 0.5% hydroxypropyl methylcellulose (v/w). At, 0.5, 1, 2, 4, 7 and 16 hours post-dose, blood samples (>100 µL/time point) were collected from portal vein and via cardiac puncture into separate K2EDTA […] tubes, and then immediately centrifuged at 1500 g, 5 min at 4° C. to separate plasma. The plasma samples were deproteinized with 4 fold acetonitrile (including internal standard), vortex for 10 min and centrifuges for 10 minutes at 4000 g at 4° C.. The supernatantswere submitted to LC/MS/MS (API 5500, Applied Biosystems, Foster City) analysis. Two sets of standard curves were run at the beginning and end of each batch from plasma sample analysis.
Compound absorption was measured by portal vein AUC (AUCHPV) and systemic AUC (AUCSYS) observed maximum concentration (Cmax) in rats after oral administration. Dose is the actual dose used in SOA study. Find below in Table 9 data for exemplary tested compounds.

[7] = In vitro rat hepatocytes clearance assay; conditions: male, rat, cryopreserved rat hepatocytes (suspension), rat hepatocytes Clint (µL/min/10^6cells), 1 µM-range incubation up to 100 min
[8] = In vitro human hepatocytes clearance assay; conditions: both, human, cryopreserved human hepatocytes (suspension), human hepatocytes Clint (µL/min/10^6cells), mixed gender human hepatocytes, incubation up to 100 min

| Compound | IC50 [1] [nM] | IC50 [2] [nM] | IC50 (EGFR L858R&T790M) [nM] | IC50 [3] [nM] | IC50 (WT EGFR) [nM] | GI50 (Ba/F3 EGFR NPH ins cells) [nM] | GI50 (Ba/F3 EGFR ASV ins cells) [nM] | GI50 [4] [nM] | GI50 [5] [nM] | GI50 (WT EGFR cell line A-431) [nM] | GI50 (OCI-LY-10 cells) [nM] | GI50 (TMD-8 cells) [nM] | GI50 (Ri-1 cells) [nM] | GI50 (DB cells) [nM] | SOA DN AUCSYS (ng·h/mL)/(mg/kg) [6] | Cmax [6] [ng/mL] | hepatocyte CLint at 1 µM [7] [µL/min/1e6 cells] | hepatocyte CLint at 1 µM [8] [µL/min/1e6 cells] |
| --- | --- | --- | --- | --- | --- | --- | --- | --- | --- | --- | --- | --- | --- | --- | --- | --- | --- | --- |
| C=CC(=O)Nc1cc(Nc2nccc(Nc3cc(Cl)c(F)cc3C(C)(C)O)n2)c(OC)cc1N1CC[C@@H](CN(C)C)C1 [Compound 86, (S)-N-(5-(4-(5-chloro-4-fluoro-2-(2-hydroxypropan-2-yl)phenylamino)pyrimidin-2-ylamino)-2-(3-((dimethylamino)methyl)pyrrolidin-1-yl)-4-methoxyphenyl)acrylamide] | 21.5 | 17.9 | 0.6 | 9.3 | 195 | 59.8 | 90.9 | 29.1 | 249 | 45.8 | 7.8 | 11.4 | 18.6 | > 3000 | 77.8 (ng·h/mL)/(mg/kg) | 76.5 | 16.2 | 4.32 |
| C=CC(=O)Nc1cc(Nc2ncnc(Nc3cc(Cl)c(F)cc3C(C)(C)O)n2)c(OC)cc1N1CC[C@@H](N(C)C)C1 [Compound 33, (R)-N-(5-(4-(5-chloro-4-fluoro-2-(2-hydroxypropan-2-yl)phenylamino)-1,3,5-triazin-2-ylamino)-2-(3-(dimethylamino)pyrrolidin-1-yl)-4-methoxyphenyl)acrylamide] | 14 | 6.9 | 0.6 | 7.8 | 12.2 | 29.6 | 22.1 | 3.1 | 71.1 | 12.7 | 0.97 | 2.5 | 2 | > 3000 | 432 (ng·h/mL)/(mg/kg) | 370 | 6.99 | 2.77 |
| C=CC(=O)Nc1cc(Nc2ncnc(Nc3cc(Cl)c(F)cc3C(C)(C)O)n2)c(OC)cc1N1C[C@@H](F)[C@@H](N(C)C)C1 [Compound 93, N-(5-(4-(5-chloro-4-fluoro-2-(2-hydroxypropan-2-yl)phenylamino)-1,3,5-triazin-2-ylamino)-2-((3 S,4R)-3-(dimethylamino)-4-fluoropyrrolidin-1-yl)-4-methoxyphenyl) acrylamide] | 33.1 | 19.4 | 1.6 | 15.1 | 51.6 | 105 | 83.2 | 7.3 | 166 | 21.5 | 0.92 | 3.1 | 3.2 | > 3000 | 249 (ng·h/mL)/(mg/kg) | 498 | 11.5 | 5.01 |
| C=CC(=O)Nc1cc(Nc2nccc(Nc3cc(Cl)c(F)cc3C(C)(C)O)n2)c(OC)cc1N1C[C@@H](F)[C@@H](N(C)C)C1 [Compound 79, N-(5-(4-(5-chloro-4-fluoro-2-(2-hydroxypropan-2-yl)phenylamino)pyrimidin-2-ylamino)-2-((3 S,4R)-3-(dimethylamino)-4-fluoropyrrolidin-1-yl)-4-methoxyphenyl)acrylamide] | 29.5 | 43.2 | 1.3 | 18.8 | 356 | 167 | 176 | 13 | 233 | 124 | 8.1 | 14.4 | 80.9 | > 3000 | 50.1 (ng·h/mL)/(mg/kg) | 52.5 | 24.1 | 7.36 |
